Laboratory results reported in patent US11633418B2, “Deoxyribonucleoside monophospate bypass therapy for mitochondrial DNA depletion syndrome” (priority 2015, dated 2023).

Experiment: Dissolution in liquid (water, formula or milk)
Type: physicochemical
Procedure: The preferred form of the administration of the deoxyribonucleoside monophosphates is in the form of disodium salts of the deoxyribonucleoside monophosphates. […] Once administered, the deoxyribonucleoside monophosphates salts convert to the free acid form. By way of example, for some of the oral administration to human patients, 2000 mg each of dTMP Na2 and dCMP Na2 were dissolved in 25 ml of water.

Dissolution in liquid (such as water, formula or milk)	Compound
easily dissolved	Nc1ccn([C@H]2C[C@H](O)[C@@H](COP(=O)([O-])[O-])O2)c(=O)n1.[Na+].[Na+] [dCMP Na2]
easily dissolved	Cc1cn([C@H]2C[C@H](O)[C@@H](COP(=O)([O-])[O-])O2)c(=O)[nH]c1=O.[Na+].[Na+] [dTMP Na2]
